The nature of series [1]: Solubility of glucosyladenosines in water (maximum dissolved concentration, HPLC). Type of series: physicochemical. How it is done:
As a basic property, the solubilities in water of the glucosyladenosines of the present invention were compared with that of adenosine. The 5′-glucosyladenosine prepared in Experiment 1-2 and the 3′-glucosyladenosine prepared in Experiment 2 were determined for solubility in water, and they were compared with that of adenosine. One hundred milligrams of 5′-glucosyladenosine or 3′-glucosyladenosine (these compounds may be collectively called glucosyladenosines, hereinafter) was dissolved in 500 μl of pure water at an ambient temperature (25° C.). While, five milligrams of adenosine was dissolved in 500 μl of pure water at an ambient temperature (25° C.). […] The filtrate was fed to HPLC under the following conditions, followed by determining the respective contents of glucosyladenosines and adenosine based on the peak areas appeared on a chromatogram by an ultraviolet detector, and calculating their concentrations as maximum dissolved concentrations at an ambient temperature (25° C.). The same samples were allowed to stand at a 4° C. cold room for one month and centrifuged, followed by quantifying the contents of glucosyladenosines and adenosine in the resulting supernatants similarly as above to determine their maximum dissolved concentrations at 4° C.
<Conditions for HPLC Analysis>
Apparatus: SHIMADZU UV-VIS DETECTOR SPD-10AV (a detector), LC-10AT (a pump), C-R8A (a recorder), and SIL-20AC (an autosampler);
Mobile phase: (0.1 v/v % aqueous acetic acid solution)/(methanol)=96/4 (v/v),
Detection wavelength: 260 nm,
Injection volume: 20 μl, and
Column temperature: 40° C.

A further series relates to involucrin (INV). The series is described as follows: Real-time PCR gene expression in NHEK cells: involucrin. Type of series: cell-based, human. Particulars: 1 μM, seven days, relative to control = 1.00. How it is done: (§1) Since glucosyladenosines were confirmed in Experiment 5 to have an action of enhancing the differentiation of keratinocytes effective for skin improvement, a test for examining the change of the expression level of a molecular marker gene of keratinocytes, as an index, was performed as follows using a real-time PCR analysis method to examine the above action in more detail. The expression level of a ceramide-synthesis-related gene was also studied to examine the influence of glucosyladenosines on ceramide synthesis that had been known to have an important role in moisturizing the skin and barrier function of the skin and deemed to be effective for skin improvement. As genes for analysis, profilaggrin (PFG: a later differentiation marker) and involucrin (INV: an early differentiation marker) as differentiation markers of keratinocytes and β-glucocerebrosidase (GCase) and sphingomyelinase (SMase) as ceramide-synthesis-related enzymes were selected, and a gene for cyclophilin B (CypB) as an internal standard upon practicing PCR reaction was used (see FIG. 7). NHEK cells were inoculated to 6-well plate coated with collagen in an amount of 8×10^4 cells/1.5 ml/well, cultured with EpiLife medium, and cultured at 37° C. for two days under a 5 v/v % CO2 condition. Thereafter, the culture medium was removed, and the resulting cells were added with a fresh EpiLife medium containing 5′-glucosyladenosine, 3′-glucosyladenosine, or adenosine in a volume of 1.5 ml/well (giving a final concentration of 1 μM of any one of glucosyladenosines and adenosine), and cultured for seven days while replacing the medium with a fresh one containing any one of glucosyladenosines and adenosine in a volume of 1.5 ml/well every other day. After completion of the culture, each well was washed twice with PBS(K−), followed by adding 0.2 ml/well of 0.025% by mass of trypsin/EDTA solution to the resulting cells and allowing the cells to stand at an ambient temperature for five minutes to detach them from the plates. […]
(Real-time PCR tracks product formation cycle by cycle.)

In the next series the test system is sphingomyelinase (SMase). The series is described as follows: Real-time PCR gene expression in NHEK cells: sphingomyelinase. Particulars: 1 μM, seven days, relative to control = 1.00. Type of series: cell-based, human. How it is done: as §1
Series [2] has as its system three-dimensional skin model (EPI-200 Kit). The series is described as follows: Cytotoxicity: LDH release from three-dimensional skin model. It counts as cell-based. Particulars: 18 hours, control = 1.0. Here is the method:
To examine whether glucosyladenosines are successively applied to the skin as ingredients for sustainable external dermal agents, they were examined for cytotoxicity. The strengths of cytotoxicity of glucosyladenosines were examined with an index of […] (LDH) that is released when cell are damaged, as an influence of glucosyladenosines and adenosine on three dimensional skin. […] A system, to which 30% ethanol with no glucosyladenosines and adenosine was added, was provided as a control. For the collected media, the activity of […] (LDH) released from each skin model was assayed on “CYTOTOXICITY DETECTION KIT (LDH)”, a product name of Hoffmann-La Roche Ltd., Basel, Switzerland, and calibrated for obtaining a relative LDH activity by regarding the LDH activity of the control as 1.0 in order to evaluate the cytotoxicity for each sample.
For orientation: LDH in the medium is a marker of cell lysis.

Each structure is given as a SMILES string. Marks after values point to notes of the source that are not given here. Some results are limits rather than exact numbers.

As for `Nc1ncnc2c1ncn2[C@@H]1O[C@H](CO)[C@@H](O[C@H]2O[C@H](CO)[C@@H](O)[C@H](O)[C@H]2O)[C@H]1O` [3′-Glucosyladenosine, α-D-glucopyranosyl-(1→3′)-adenosine], the Maximum dissolved concentration was found to be 2 w/v % in series [1] (4° C., one month) and 2 w/v % in series [1] (25° C., one day). For the same molecule, in the series on involucrin (INV), the “Gene expression level INV” value is 1.52*. Moreover, in the series with sphingomyelinase (SMase), the “Gene expression level SMase” value is listed as 2.03*. In addition, the “Relative LDH activity” value in series [2] (concentration 5%) came to 0.99.
As for `Nc1ncnc2c1ncn2[C@@H]1O[C@H](CO[C@H]2O[C@H](CO)[C@@H](O)[C@H](O)[C@H]2O)[C@@H](O)[C@H]1O` [5′-Glucosyladenosine, α-D-glucopyranosyl-(1→5′)-adenosine], the Maximum dissolved concentration in series [1] (4° C., one month) was over 15.7 w/v %; in series [1] (25° C., one day) it was over 16.1 w/v %. For the same molecule, the “Gene expression level INV” value with involucrin (INV) is reported as 1.66**. The “Gene expression level SMase” value in the series on sphingomyelinase (SMase) was 2.57**. Moreover, the “Relative LDH activity” value in series [2] (concentration 5%) turned out to be 0.79.
On to `Nc1ncnc2c1ncn2[C@@H]1O[C@H](CO)[C@@H](O)[C@H]1O` [Adenosine, reference compound], for which the Maximum dissolved concentration is on record as 0.4 w/v % in series [1] (4° C., one month) and 0.8 w/v % in series [1] (25° C., one day). In the series on involucrin (INV), the “Gene expression level INV” value worked out at 1.15. The “Gene expression level SMase” value with sphingomyelinase (SMase) came out at 1.35. Moreover, the “Relative LDH activity” value in series [2] (concentration 0.1%) amounted to 1.38; in series [2] (concentration 1%) it was 3.68.

The values above are taken from patent publication US9492368B2, “External preparation for skin” (HAYASHIBARA CO., LTD., priority 2011, dated 2016).
